Assay results published in PubChem BioAssay AID2060485 (Molecular Pharmacology Branch, DTP, NCI, 2025).

Tested on: A375 multi-cell spheroids with HUVEC/MSC, viability
Experiment: Anticancer human tumor A375 cell line growth inhibition [GQUAD];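 further: spheroids exposed to compounds for seven days before readout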
Settings: for IC50: curve of first compound; for viability, T/C: stronger effect = lower value
Method in brief: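 Multi-cell-type spheroids of tumor cells with HUVEC and mesenchymal stem cells, treated with drug combinations. Concentrations descend in half-log steps from near clinical Cmax, or from 10 microM where Cmax is unknown; viability read-out.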

[1] = second compound 0.0316 µM, first compound 0.0316 µM
[2] = second compound 0.0316 µM, first compound 0.316 µM
[3] = second compound 0.1 µM, first compound 0.0316 µM
[4] = second compound 0.1 µM, first compound 0.316 µM
[5] = second compound 0.316 µM, first compound 0.0316 µM
[6] = second compound 0.316 µM, first compound 0.316 µM
[7] = second compound 1 µM, first compound 0.0316 µM
[8] = second compound 1 µM, first compound 0.316 µM
[9] = second compound 3.16 µM, first compound 0.0316 µM
[10] = second compound 3.16 µM, first compound 0.316 µM
[11] = second compound 10 µM, first compound 0.0316 µM
[12] = second compound 10 µM, first compound 0.316 µM
[13] = second compound 0.0316 µM, first compound 0.000999 µM
[14] = second compound 0.0316 µM, first compound 0.00316 µM
[15] = second compound 0.0316 µM, first compound 0.00999 µM
[16] = second compound 0.0316 µM, first compound 0.0999 µM
[17] = second compound 0.1 µM, first compound 0.000999 µM
[18] = second compound 0.1 µM, first compound 0.00316 µM
[19] = second compound 0.1 µM, first compound 0.00999 µM
[20] = second compound 0.1 µM, first compound 0.0999 µM
[21] = second compound 0.316 µM, first compound 0.000999 µM
[22] = second compound 0.316 µM, first compound 0.00316 µM
[23] = second compound 0.316 µM, first compound 0.00999 µM
[24] = second compound 0.316 µM, first compound 0.0999 µM
[25] = second compound 1 µM, first compound 0.000999 µM
[26] = second compound 1 µM, first compound 0.00316 µM
[27] = second compound 1 µM, first compound 0.00999 µM
[28] = second compound 1 µM, first compound 0.0999 µM
[29] = second compound 3.16 µM, first compound 0.000999 µM
[30] = second compound 3.16 µM, first compound 0.00316 µM
[31] = second compound 3.16 µM, first compound 0.00999 µM
[32] = second compound 3.16 µM, first compound 0.0999 µM
[33] = second compound 10 µM, first compound 0.000999 µM
[34] = second compound 10 µM, first compound 0.00316 µM
[35] = second compound 10 µM, first compound 0.00999 µM
[36] = second compound 10 µM, first compound 0.0999 µM

C=CCn1c(=O)c2cnc(Nc3ccc(N4CCN(C)CC4)cc3)nc2n1-c1cccc(C(C)(C)O)n1 + CN(C)c1ccc(Nc2c3ccc(NC(=O)CCN4CCCC4)cc3nc3cc(NC(=O)CCN4CCCC4)ccc23)cc1
IC50 (second compound 0.0316 µM): 1160 nM
IC50 (second compound 0.1 µM): 1230 nM
IC50 (second compound 0.316 µM): 1310 nM
IC50 (second compound 1 µM): 1380 nM
IC50 (second compound 3.16 µM): 1440 nM
IC50 (second compound 10 µM): 1400 nM
viability, T/C [1]: 99.7%
viability, T/C (second compound 0.0316 µM, first compound 0.1 µM): 105%
viability, T/C [2]: 96.4%
viability, T/C (second compound 0.0316 µM, first compound 1 µM): 55.9%
viability, T/C (second compound 0.0316 µM, first compound 3.16 µM): 12.3%
viability, T/C (second compound 0.0316 µM, first compound 10 µM): 7.71%
viability, T/C [3]: 98.4%
viability, T/C (second compound 0.1 µM, first compound 0.1 µM): 100%
viability, T/C [4]: 104%
viability, T/C (second compound 0.1 µM, first compound 1 µM): 58%
viability, T/C (second compound 0.1 µM, first compound 3.16 µM): 15.1%
viability, T/C (second compound 0.1 µM, first compound 10 µM): 7.18%
viability, T/C [5]: 106%
viability, T/C (second compound 0.316 µM, first compound 0.1 µM): 98.7%
viability, T/C [6]: 99.9%
viability, T/C (second compound 0.316 µM, first compound 1 µM): 60.7%
viability, T/C (second compound 0.316 µM, first compound 3.16 µM): 14.2%
viability, T/C (second compound 0.316 µM, first compound 10 µM): 6.94%
viability, T/C [7]: 102%
viability, T/C (second compound 1 µM, first compound 0.1 µM): 102%
viability, T/C [8]: 107%
viability, T/C (second compound 1 µM, first compound 1 µM): 63.8%
viability, T/C (second compound 1 µM, first compound 3.16 µM): 15.3%
viability, T/C (second compound 1 µM, first compound 10 µM): 6.9%
viability, T/C [9]: 108%
viability, T/C (second compound 3.16 µM, first compound 0.1 µM): 96.1%
viability, T/C [10]: 106%
viability, T/C (second compound 3.16 µM, first compound 1 µM): 66%
viability, T/C (second compound 3.16 µM, first compound 3.16 µM): 15.6%
viability, T/C (second compound 3.16 µM, first compound 10 µM): 8.34%
viability, T/C [11]: 103%
viability, T/C (second compound 10 µM, first compound 0.1 µM): 93.3%
viability, T/C [12]: 105%
viability, T/C (second compound 10 µM, first compound 1 µM): 63.5%
viability, T/C (second compound 10 µM, first compound 3.16 µM): 17.4%
viability, T/C (second compound 10 µM, first compound 10 µM): 8.32%

Cn1ncnc1[C@H]1c2n[nH]c(=O)c3cc(F)cc(c23)N[C@@H]1c1ccc(F)cc1 + Cc1cnc(CNC(=O)c2c(=O)c3ccc(N4CCCN(C)CC4)nc3n3c2sc2ccccc23)cn1
IC50 (second compound 0.0316 µM): > 316 nM
IC50 (second compound 0.1 µM): > 316 nM
IC50 (second compound 0.316 µM): 40.3 nM
IC50 (second compound 1 µM): < 0.999 nM
IC50 (second compound 3.16 µM): < 0.999 nM
IC50 (second compound 10 µM): < 0.999 nM
viability, T/C [13]: 100%
viability, T/C [14]: 98.9%
viability, T/C [15]: 107%
viability, T/C [1]: 97.4%
viability, T/C [16]: 75.6%
viability, T/C [2]: 90.6%
viability, T/C [17]: 98.7%
viability, T/C [18]: 73.7%
viability, T/C [19]: 72.2%
viability, T/C [3]: 68.9%
viability, T/C [20]: 55.7%
viability, T/C [4]: 60.5%
viability, T/C [21]: 55.8%
viability, T/C [22]: 55.5%
viability, T/C [23]: 49.4%
viability, T/C [5]: 53.8%
viability, T/C [24]: 46.6%
viability, T/C [6]: 43%
viability, T/C [25]: 39%
viability, T/C [26]: 47.1%
viability, T/C [27]: 44.3%
viability, T/C [7]: 41.8%
viability, T/C [28]: 41.4%
viability, T/C [8]: 44.3%
viability, T/C [29]: 35.9%
viability, T/C [30]: 43.8%
viability, T/C [31]: 34.2%
viability, T/C [9]: 30.3%
viability, T/C [32]: 34.2%
viability, T/C [10]: 32.7%
viability, T/C [33]: 29.1%
viability, T/C [34]: 32.7%
viability, T/C [35]: 33%
viability, T/C [11]: 32.4%
viability, T/C [36]: 36.2%
viability, T/C [12]: 32.3%

Cc1[nH]c2ccccc2c1CCNCc1ccc(/C=C/C(=O)NO)cc1 + CN(C)c1ccc(Nc2c3ccc(NC(=O)CCN4CCCC4)cc3nc3cc(NC(=O)CCN4CCCC4)ccc23)cc1
IC50 (second compound 0.0316 µM): 156 nM
IC50 (second compound 0.1 µM): 133 nM
IC50 (second compound 0.316 µM): 127 nM
IC50 (second compound 1 µM): 119 nM
IC50 (second compound 3.16 µM): 106 nM
IC50 (second compound 10 µM): 97.7 nM
viability, T/C [13]: 111%
viability, T/C [14]: 101%
viability, T/C [15]: 110%
viability, T/C [1]: 122%
viability, T/C [16]: 76%
viability, T/C [2]: 9.06%
viability, T/C [17]: 99.1%
viability, T/C [18]: 110%
viability, T/C [19]: 124%
viability, T/C [3]: 127%
viability, T/C [20]: 64%
viability, T/C [4]: 7.22%
viability, T/C [21]: 107%
viability, T/C [22]: 110%
viability, T/C [23]: 111%
viability, T/C [5]: 114%
viability, T/C [24]: 61.5%
viability, T/C [6]: 7.25%
viability, T/C [25]: 104%
viability, T/C [26]: 113%
viability, T/C [27]: 116%
viability, T/C [7]: 110%
viability, T/C [28]: 58%
viability, T/C [8]: 5.35%
viability, T/C [29]: 98.4%
viability, T/C [30]: 106%
viability, T/C [31]: 113%
viability, T/C [9]: 114%
viability, T/C [32]: 52.3%
viability, T/C [10]: 5.53%
viability, T/C [33]: 111%
viability, T/C [34]: 98.7%
viability, T/C [35]: 112%
viability, T/C [11]: 106%
viability, T/C [36]: 48.9%
viability, T/C [12]: 3.5%
